Values quoted from earlier work, collected in article PMC2912446 (ACS chemical biology, 2010).
pIC50: −log10 of the molar value.

Tested on: GPR30
Conditions: read-out: GPR30 binding affinity; parent small molecules

Compound | pIC50
CC(=O)c1ccc2c(c1)[C@@H]1C=CC[C@@H]1[C@H](c1cc3c(cc1Br)OCO3)N2 [G-1] | ~7.96
